Assay results: patent publication US20260364079A1 (Principia Biopharma Inc., priority 2022, published 2026)

Key:
[1] = molecular target: BTK (Homo sapiens, UniProt Q06187); details: healthy volunteers, cited from earlier work
[2] = Phase 2 trial; cited from earlier work
[3] = test system: 251 kinases; test: broad kinase enzyme inhibition panel; format: biochemical; details: 1 μM
[4] = in vivo; cited from earlier work
[5] = patients with chronic lymphatic leukemia; cited from earlier work

BTK, sequence (Q06187 whole entry): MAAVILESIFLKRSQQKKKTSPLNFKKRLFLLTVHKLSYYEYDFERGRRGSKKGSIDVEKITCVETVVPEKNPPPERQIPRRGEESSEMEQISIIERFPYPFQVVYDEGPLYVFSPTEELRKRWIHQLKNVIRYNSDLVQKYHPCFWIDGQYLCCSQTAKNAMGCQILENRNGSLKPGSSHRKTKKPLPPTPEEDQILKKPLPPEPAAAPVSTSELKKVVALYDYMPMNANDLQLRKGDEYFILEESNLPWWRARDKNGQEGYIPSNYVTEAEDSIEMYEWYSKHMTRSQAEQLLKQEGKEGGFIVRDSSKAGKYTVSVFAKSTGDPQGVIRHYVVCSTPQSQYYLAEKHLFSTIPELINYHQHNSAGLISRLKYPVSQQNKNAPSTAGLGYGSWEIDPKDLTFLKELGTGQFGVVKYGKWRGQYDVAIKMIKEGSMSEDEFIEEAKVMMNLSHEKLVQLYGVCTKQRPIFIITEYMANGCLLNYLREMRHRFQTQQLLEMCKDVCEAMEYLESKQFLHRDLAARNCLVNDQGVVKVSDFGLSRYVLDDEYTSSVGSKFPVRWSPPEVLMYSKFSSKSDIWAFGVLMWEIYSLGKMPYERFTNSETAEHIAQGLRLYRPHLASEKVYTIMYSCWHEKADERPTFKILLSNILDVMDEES

Compound: C=CC(=O)Nc1cccc(Nc2nc(Nc3ccc(OCCOC)cc3)ncc2F)c1 [CC-292]
- tolerability ([1]; doses with 100% occupancy): well tolerated
- occupancy of the BTK enzyme [1]: 100%

Compound: C=CC(=O)N1CCC(CNc2ncnc(N)c2-c2ccc(Oc3ccccc3)cc2)CC1 [evobrutinib]
- efficacy in multiple sclerosis [2]: demonstrated efficacy for multiple sclerosis

Compound: C=CC(=O)N1CCC[C@@H](n2nc(-c3ccc(Oc4ccccc4)cc3)c3c(N)ncnc32)C1 [ibrutinib]
- number of kinases inhibited [3]: 21 kinases
- activity in other hematological malignancies [4]: demonstrated activity in other hematological malignancies
- sequential episodes of severe autoimmune hemolytic anemia and ITP [5]: ceased after initiation of treatment with ibrutinib
